Data reported in ChEMBL document CHEMBL1149199 (Bioorg Med Chem Lett, 2004).

What was measured:
[1] = biological target: T1, Sodium-dependent dopamine transporter (Homo sapiens, UniProt Q01959); assay: Ability to inhibit [3H]mazindol binding to cloned human dopamine (DA) transporter
[2] = biological target: T2, Sodium-dependent serotonin transporter (Homo sapiens, UniProt P31645)
Description: Ability to inhibit [3H]paroxetine binding to cloned human serotonin (5-HT) transporter

[3] = biological target: T3, Sodium-dependent noradrenaline transporter (Homo sapiens, UniProt P23975)
[4] = biological target: T3, Sodium-dependent noradrenaline transporter; assay: Ability to inhibit [3H]nisoxetine binding to cloned human norepinephrine (NE) transporter; Average of two experiments
[5] = biological target: T1, Sodium-dependent dopamine transporter
Description: Ability to inhibit [3H]mazindol binding to cloned human dopamine (DA) transporter; Average of two experiments

[6] = biological target: T2, Sodium-dependent serotonin transporter; remark: listed apart in the source
Description: Ability to inhibit [3H]paroxetine binding to cloned human serotonin (5-HT) transporter; Average of two experiments

T2 sequence (P31645 whole entry): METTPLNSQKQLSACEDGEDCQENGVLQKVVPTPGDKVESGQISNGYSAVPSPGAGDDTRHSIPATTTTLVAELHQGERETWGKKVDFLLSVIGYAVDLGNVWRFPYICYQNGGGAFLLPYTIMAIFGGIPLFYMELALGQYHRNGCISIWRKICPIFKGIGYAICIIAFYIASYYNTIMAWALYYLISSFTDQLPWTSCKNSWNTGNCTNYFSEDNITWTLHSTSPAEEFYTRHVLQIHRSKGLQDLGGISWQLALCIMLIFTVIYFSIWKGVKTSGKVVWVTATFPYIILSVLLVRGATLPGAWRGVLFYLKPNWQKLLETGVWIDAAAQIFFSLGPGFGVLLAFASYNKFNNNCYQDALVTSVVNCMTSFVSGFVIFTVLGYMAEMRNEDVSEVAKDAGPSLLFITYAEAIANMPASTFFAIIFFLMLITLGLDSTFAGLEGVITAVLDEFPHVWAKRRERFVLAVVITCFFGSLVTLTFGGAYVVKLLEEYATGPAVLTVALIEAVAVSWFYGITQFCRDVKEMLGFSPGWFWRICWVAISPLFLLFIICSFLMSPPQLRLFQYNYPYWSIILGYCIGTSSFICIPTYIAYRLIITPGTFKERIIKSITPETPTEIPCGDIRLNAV
T1 sequence (Q01959 whole entry): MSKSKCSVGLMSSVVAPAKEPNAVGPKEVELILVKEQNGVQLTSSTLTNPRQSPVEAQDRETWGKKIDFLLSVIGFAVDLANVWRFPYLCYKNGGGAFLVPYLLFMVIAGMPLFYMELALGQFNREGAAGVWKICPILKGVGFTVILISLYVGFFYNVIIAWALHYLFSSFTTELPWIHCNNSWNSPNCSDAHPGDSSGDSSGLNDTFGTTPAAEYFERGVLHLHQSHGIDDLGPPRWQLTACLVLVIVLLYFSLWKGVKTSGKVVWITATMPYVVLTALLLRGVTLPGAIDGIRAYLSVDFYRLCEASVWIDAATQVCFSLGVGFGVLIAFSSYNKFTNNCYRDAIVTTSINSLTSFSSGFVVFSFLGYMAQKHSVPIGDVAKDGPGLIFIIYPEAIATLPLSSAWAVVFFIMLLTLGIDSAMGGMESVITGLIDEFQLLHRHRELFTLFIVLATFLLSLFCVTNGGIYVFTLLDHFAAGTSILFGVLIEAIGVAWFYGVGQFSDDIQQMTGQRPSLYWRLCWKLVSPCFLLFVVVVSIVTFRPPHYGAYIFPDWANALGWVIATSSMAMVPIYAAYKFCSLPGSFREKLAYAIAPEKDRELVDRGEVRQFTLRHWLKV
T3 sequence (P23975 whole entry): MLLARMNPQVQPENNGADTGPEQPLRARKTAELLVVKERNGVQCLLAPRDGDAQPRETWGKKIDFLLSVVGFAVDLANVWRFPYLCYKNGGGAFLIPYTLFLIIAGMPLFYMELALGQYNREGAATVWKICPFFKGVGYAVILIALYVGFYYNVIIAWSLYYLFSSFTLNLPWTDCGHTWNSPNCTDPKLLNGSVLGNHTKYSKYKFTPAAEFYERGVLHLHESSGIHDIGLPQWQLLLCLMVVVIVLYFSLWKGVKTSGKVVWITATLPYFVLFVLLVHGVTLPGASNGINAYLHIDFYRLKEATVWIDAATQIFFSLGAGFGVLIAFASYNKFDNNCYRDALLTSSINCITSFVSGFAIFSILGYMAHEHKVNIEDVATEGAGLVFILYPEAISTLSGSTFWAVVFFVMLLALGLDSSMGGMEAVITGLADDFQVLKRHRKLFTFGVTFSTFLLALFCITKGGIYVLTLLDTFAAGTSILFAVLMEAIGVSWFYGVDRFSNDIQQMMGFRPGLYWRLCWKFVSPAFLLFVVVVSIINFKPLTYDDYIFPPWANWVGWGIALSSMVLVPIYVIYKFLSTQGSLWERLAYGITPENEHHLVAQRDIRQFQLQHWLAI

Compound `CNCC[C@H](Oc1cccc2c(O)c(OC)ccc12)c1cccs1` has a Ki [1] of 2810 nM, a Ki [2] of 266 nM and a Ki [3] of 920 nM.

`CNCC[C@H](Oc1cccc2cc(O[C@@H]3O[C@H](C(=O)O)[C@@H](O)[C@H](O)[C@H]3O)ccc12)c1cccs1` was tested, and the Ki [1] was greater than 10000 nM, the Ki [2] was 1460 nM and the Ki [3] was 5450 nM.

`CNCC[C@H](Oc1ccc(O[C@@H]2O[C@H](C(=O)O)[C@@H](O)[C@H](O)[C@H]2O)c2ccccc12)c1cccs1` was tested, and the Ki [1] was 3510 nM, the Ki [2] was greater than 10000 nM and the Ki [3] was greater than 10000 nM.

With `CNCC[C@H](Oc1cccc2c(O[C@@H]3O[C@H](C(=O)O)[C@@H](O)[C@H](O)[C@H]3O)c(O[C@@H]3O[C@H](C(=O)O)[C@@H](O)[C@H](O)[C@H]3O)ccc12)c1cccs1` the Ki [1] was greater than 10000 nM, the Ki [2] was greater than 10000 nM and the Ki [3] was greater than 10000 nM.

Work on `CNCC[C@H](Oc1cccc2c(O[C@@H]3O[C@H](C(=O)O)[C@@H](O)[C@H](O)[C@H]3O)c(OC)ccc12)c1cccs1` yielded a Ki [1] greater than 10000 nM, a Ki [2] greater than 10000 nM and a Ki [3] greater than 10000 nM.

Compound `CNCC[C@H](Oc1cccc2c(O)cccc12)c1cccs1` has a Ki [4] of 18.4 nM, a Ki [5] of 241 nM and a Ki [6] of 9.6 nM.

Work on `CNCC[C@H](Oc1cccc2c(OC)c(O)ccc12)c1cccs1` yielded a Ki [4] of 235 nM, a Ki [5] of 353 nM and a Ki [6] of 3.66 nM.

With `CNCC[C@H](Oc1ccc(O)c2ccccc12)c1cccs1` the Ki [4] was 97.1 nM, the Ki [5] was 130 nM and the Ki [6] was 63.9 nM.

With `CNCC[C@H](Oc1cccc2cc(O)ccc12)c1cccs1` the Ki [4] was 4.72 nM, the Ki [5] was 163 nM and the Ki [6] was 1.06 nM.

`CNCC[C@H](Oc1cccc2c(OS(=O)(=O)O)c(OC)ccc12)c1cccs1` was tested, and the Ki [1] was greater than 10000 nM, the Ki [2] was 3120 nM and the Ki [3] was greater than 10000 nM.

`CNCC[C@H](Oc1cccc2c(O)c(O)ccc12)c1cccs1` (stereo in doubt; form 1) was tested, and the Ki [1] was greater than 10000 nM, the Ki [2] was 31.7 nM and the Ki [3] was 554 nM.

For `CNCC[C@H](Oc1cccc2c(O)c(O)ccc12)c1cccs1` (stereo in doubt; form 2), the Ki [1] was 7270 nM, the Ki [2] was 120 nM and the Ki [3] was 695 nM.
